Test [1] has as its system MCF7. Kind of test: Estrogen-like activity in human MCF7 cells assessed as increase in cell proliferation after 96 hrs by alamar blue assay. In kind it is functional, cell-based. For orientation: The colour change of resazurin is a common sign of viable cells or microbes.
Test [2] relates to T47D. Kind of test: Estrogen-like activity in human T47D cells assessed as increase in cell proliferation after 96 hrs by alamar blue assay. The test is classed as functional, cell-based.
The test system of test [3] is MCF7. Kind of test: Antiestrogenic activity in human MCF7 cells assessed as compound concentration required to decrease 100 pM E2-induced cell proliferation to equivalent levels induced by 50 pM E2 after 96 hrs by alamar blue assay. The test is classed as functional.
The test system of test [4] is T47D. Kind of test: Antiestrogenic activity in human T47D cells assessed as compound concentration required to decrease 100 pM E2-induced cell proliferation to equivalent levels induced by 50 pM E2 after 96 hrs by alamar blue assay. The test is classed as functional.
The test system of test [5] is T47D. Kind of test: Antiestrogenic activity in human T47D cells assessed as compound concentration required to decrease 100 pM E2-induced cell proliferation to equivalent levels induced by 10 pM E2 after 96 hrs by alamar blue assay. The test is classed as functional.
The test system of test [6] is T47D. Kind of test: Antiestrogenic activity in human T47D cells assessed as inhibition of E2-induced cell proliferation up to 10 uM after 96 hrs by alamar blue assay relative to control. The test is classed as functional.
The subject of the next test is Leishmania major. Kind of test: Leishmanicidal activity against Leishmania major promastigotes at 100 ug/ml after 48 hrs by MTT assay. The test is classed as functional, organism-based.
Test [7] deals with MCF7. Kind of test: Antiestrogenic activity in human MCF7 cells assessed as inhibition of E2-induced cell proliferation up to 10 uM after 96 hrs by alamar blue assay relative to control. In kind it is functional.
Test [8] concerns MCF7. Kind of test: Antiestrogenic activity in human MCF7 cells assessed as compound concentration required to decrease 100 pM E2-induced cell proliferation to equivalent levels induced by 10 pM E2 after 96 hrs by alamar blue assay. The test is classed as functional.
Test [9] has as its system MCF7. Kind of test: Antiestrogenic activity in human MCF7 cells assessed as compound concentration required to decrease 100 pM E2-induced cell proliferation to equivalent levels induced by 1 pM E2 after 96 hrs by alamar blue assay. The test is classed as functional.
The test system of test [10] is T47D. Kind of test: Antiestrogenic activity in human T47D cells assessed as compound concentration required to decrease 100 pM E2-induced cell proliferation to equivalent levels induced by 1 pM E2 after 96 hrs by alamar blue assay. The test is classed as functional.

The values that follow come from ChEMBL document CHEMBL4428032, “Furofuran Lignan Glucosides with Estrogen-Inhibitory Properties from the Bangladeshi Medicinal Plant Terminalia citrina” (2016).

Calls of active or inactive are those of the source. The calls are words filed in the database; no cut-off is given here. Where only a bound is given, the exact number is not on record here.

For the compound `COc1cc([C@@H]2OC[C@@H]3[C@H]2CO[C@H]3c2cc(O[C@@H]3O[C@H](CO)[C@@H](O)[C@H](O)[C@H]3O)c(OC)c(OC)c2OC)c(OC)c(OC)c1OC`, the result in the test on MCF7 [1], with T47D [2] and in the test on Leishmania major was inactive. Besides, the Activity was under 0.01 µM in the test with MCF7 [3], under 0.01 µM with T47D [4] and 1 µM with T47D [5]. Also, the “inhibition (INH)” value in the test on T47D [6] is on record as over 50%.

Consider `COc1cc([C@@H]2OC[C@H]3[C@@H]2CO[C@@H]3c2cc(OC)c(OC)c(OC)c2O[C@@H]2O[C@H](CO)[C@@H](O)[C@H](O)[C@H]2O)c(O)c(OC)c1OC`, for which the “inhibition (INH)” value in the test on MCF7 [7] was over 90%. The result in the test on MCF7 [1], in the test with T47D [2] and with Leishmania major was inactive. The Activity in the test on MCF7 [3] is under 0.01 µM; in the test on MCF7 [8], under 0.01 µM; with T47D [4], under 0.1 µM.

`COc1cc([C@H]2OC[C@H]3[C@@H]2CO[C@@H]3c2cc(OC)c(OC)c(OC)c2O[C@@H]2O[C@H](CO)[C@@H](O)[C@H](O)[C@H]2O)cc(OC)c1OC`: the “inhibition (INH)” value is over 50% in the test with MCF7 [7] and over 90% in the test with T47D [6]. In addition, the result in the test with MCF7 [1], in the test with T47D [2] and with Leishmania major was inactive. Besides, the Activity was under 0.01 µM with MCF7 [3], 9.8 µM in the test on MCF7 [8], under 0.01 µM in the test on T47D [4] and under 0.01 µM in the test on T47D [5].

Consider `COc1c(O)cc([C@@H]2OC[C@@H]3[C@H]2CO[C@H]3c2cc(O[C@@H]3O[C@H](CO)[C@@H](O)[C@H](O)[C@H]3O)c(OC)c(OC)c2OC)c(OC)c1OC`, for which the “inhibition (INH)” value in the test on MCF7 [7] is given as over 90%. Further, the result in the test with MCF7 [1], with T47D [2] and with Leishmania major was inactive. In addition, the Activity with MCF7 [3] was under 0.01 µM; in the test with MCF7 [8], under 0.1 µM; with T47D [4], under 0.01 µM.

For `COc1cc([C@H]2OC[C@H]3[C@@H]2CO[C@H]3c2cc(OC)c(OC)c(OC)c2O[C@@H]2O[C@H](CO)[C@@H](O)[C@H](O)[C@H]2O)cc2c1OCO2`, the “inhibition (INH)” value in the test with MCF7 [7] is listed as over 50%. Moreover, the result in the test with MCF7 [1], in the test with T47D [2] and in the test with Leishmania major was inactive. Besides, the Activity in the test on MCF7 [3] is under 0.01 µM; in the test with MCF7 [8] it was 0.6 µM; in the test with T47D [4] it was 5.6 µM.

Take `CC/C(=C(\c1ccccc1)c1ccc(OCCN(C)C)cc1)c1ccccc1` [TAMOXIFEN]: the Activity was found to be 0.1 µM with MCF7 [3]; 0.3 µM in the test on MCF7 [8]; 4.5 µM in the test with MCF7 [9]; 0.1 µM in the test with T47D [4]; 0.9 µM in the test with T47D [5]; 7 µM in the test with T47D [10].

With `COc1cc([C@H]2OC[C@H]3[C@@H]2CO[C@@H]3c2ccc3c(c2)OCO3)c(O[C@@H]2O[C@H](CO)[C@@H](O)[C@H](O)[C@H]2O)c(OC)c1OC`, the result in the test with MCF7 [1], in the test on T47D [2] and in the test on Leishmania major was inactive. The Activity was under 0.01 µM with MCF7 [3]; under 0.01 µM in the test on MCF7 [8]; 3.5 µM with MCF7 [9]; under 0.01 µM in the test on T47D [4]; under 0.01 µM in the test on T47D [5]. Moreover, in the test on T47D [6], the “inhibition (INH)” value was over 90%.

With `COc1cc([C@H]2OC[C@H]3[C@@H]2CO[C@@H]3c2cc(OC)c3c(c2)OCO3)cc(O[C@@H]2O[C@H](CO)[C@@H](O)[C@H](O)[C@H]2O)c1OC`, the outcome with MCF7 [1], in the test with T47D [2] and in the test on Leishmania major was inactive. Also, the Activity with MCF7 [3], in the test on T47D [4] and with T47D [5] was under 0.01 µM throughout. Moreover, the “inhibition (INH)” value in the test on T47D [6] is recorded as over 90%.

In the case of `COc1cc([C@@H]2OC[C@@H]3[C@H]2CO[C@H]3c2cc(O)c(OC)c(OC)c2O[C@@H]2O[C@H](CO)[C@@H](O)[C@H](O)[C@H]2O)c(OC)c(OC)c1OC`, the result in the test on MCF7 [1], in the test on T47D [2] and in the test on Leishmania major was inactive. The Activity with MCF7 [3] and in the test with T47D [4] was under 0.01 µM throughout.

Turning to `COc1cc([C@H]2OC[C@H]3[C@@H]2CO[C@@H]3c2cc(OC)c(OC)c(OC)c2O[C@@H]2O[C@H](CO)[C@@H](O)[C@H](O)[C@H]2O)c(O)c(OC)c1OC`, the result with MCF7 [1], with T47D [2] and in the test on Leishmania major was inactive. Moreover, the Activity with MCF7 [3] and in the test on T47D [4] was under 0.01 µM each time.

Regarding `COc1c(O)cc([C@H]2OC[C@H]3[C@@H]2CO[C@@H]3c2ccc3c(c2)OCO3)c(O[C@@H]2O[C@H](CO)[C@@H](O)[C@H](O)[C@H]2O)c1OC`, the outcome in the test on MCF7 [1], with T47D [2] and in the test with Leishmania major was inactive. Also, the Activity in the test on MCF7 [3] and in the test with T47D [4] was under 0.01 µM throughout.

For `COc1cc([C@H]2OC[C@H]3[C@@H]2CO[C@@H]3c2cc(O)c(OC)c(OC)c2O[C@@H]2O[C@H](CO)[C@@H](O)[C@H](O)[C@H]2O)cc2c1OCO2`, the “inhibition (INH)” value in the test with MCF7 [7] was over 90%. For the same compound, the result in the test on MCF7 [1], in the test with T47D [2] and in the test with Leishmania major was inactive. Moreover, the Activity in the test with MCF7 [3] is under 0.01 µM; with MCF7 [8], under 0.1 µM; in the test on T47D [4] it was 10 µM.

As for `COc1c(O)cc([C@H]2OC[C@H]3[C@@H]2CO[C@@H]3c2cc3c(c(OC)c2OC)OCO3)c(O[C@@H]2O[C@H](CO)[C@@H](O)[C@H](O)[C@H]2O)c1OC`, in the test with MCF7 [7], the “inhibition (INH)” value was over 90%. In addition, the outcome with MCF7 [1], with T47D [2] and in the test with Leishmania major was inactive. In addition, the Activity with MCF7 [3], in the test on MCF7 [8] and in the test on T47D [4] was under 0.01 µM throughout.

Turning to `COc1cc([C@H]2OC[C@H]3[C@@H]2CO[C@@H]3c2cc(OC)c(OC)c(OC)c2O[C@@H]2O[C@H](CO)[C@@H](O)[C@H](O)[C@H]2O)cc2c1OCO2`, the result in the test with MCF7 [1], in the test on T47D [2] and with Leishmania major was inactive. Moreover, in the test with MCF7 [3], the Activity was under 0.01 µM.
